Test results as given in ChEMBL document CHEMBL4428029, “Notch Antagonists: Potential Modulators of Cancer and Inflammatory Diseases” (J Med Chem, 2016).
Each block holds one molecule with its values, some of them ahead of it. Residues, ends and D or L forms follow the SMILES beside them. *: point of attachment. Decanoyl = CCCCCCCCCC(=O)*; CH2Cl = ClC*

Assays:
Gamma-secretase [1] = assay: Inhibition of gamma secretase mediated Notch delta E activation in human HeLa cells expressing EGFP after 16 hrs by immunofluorescence analysis; format: cell-based
Gamma-secretase [2] = assay: Modulation of gamma secretase (unknown origin) assessed as reduction in amyloid beta levels; format: protein-complex assay, Homo sapiens
Gamma-secretase [3] = assay: Inhibition of gamma secretase in human MCF7 cells assessed as reduction in amyloid beta 40 after 3 days by Western blot analysis
Gamma-secretase [4] = assay: Inhibition of gamma secretase (unknown origin) mediated Notch signaling; format: protein-complex assay, Homo sapiens
Gamma-secretase [5] = assay: Inhibition of gamma secretase (unknown origin); format: protein-complex assay, Homo sapiens
Gamma-secretase [6] = assay: Inhibition of gamma secretase mediated amyloid beta level reduction in HEK293 cells expressing APP after 72 hrs by chemiluminescence assay; format: cell-based, Homo sapiens
Gamma-secretase [7] = assay: Inhibition of gamma secretase mediated Notch1 signaling in HEK293 cells expressing truncated human Notch1 by luciferase reporter gene assay; format: cell-based
A549 = assay: Antitumor activity against human A549 cells xenografted in nude mouse assessed as tumor growth inhibition at 3 to 60 mg/kg qd or bid administered via oral gavage for 7 to 21 days relative to vehicle treated control; format: functional
Gamma-secretase [8] = assay: Inhibition of gamma secretase in HEK293 cells expressing APP695 assessed as reduction in amyloid beta (1 to 40 residues) by ELISA; format: cell-based, Homo sapiens
Gamma-secretase [9] = assay: Inhibition of gamma secretase (unknown origin) mediated Notch M1726V mutant activation in CHO K1 cells after 48 hrs by chemiluminescence assay
Gamma-secretase [10] = assay: Inhibition of gamma secretase (unknown origin) mediated APP cleavage in CHO cells expressing APP Swedish KM/NL mutant assessed as reduction in amyloid beta 40 after 24 hrs by sandwich ELISA
[11] = molecular target: T1, Neuroendocrine convertase 2 (Homo sapiens, UniProt P16519); assay: Inhibition of recombinant C-terminal truncated human SPC2 expressed in drosophila Schneider 2 cells after 1 hr by spectrofluorometry; format: cell-based
T1 sequence (P16519 whole entry): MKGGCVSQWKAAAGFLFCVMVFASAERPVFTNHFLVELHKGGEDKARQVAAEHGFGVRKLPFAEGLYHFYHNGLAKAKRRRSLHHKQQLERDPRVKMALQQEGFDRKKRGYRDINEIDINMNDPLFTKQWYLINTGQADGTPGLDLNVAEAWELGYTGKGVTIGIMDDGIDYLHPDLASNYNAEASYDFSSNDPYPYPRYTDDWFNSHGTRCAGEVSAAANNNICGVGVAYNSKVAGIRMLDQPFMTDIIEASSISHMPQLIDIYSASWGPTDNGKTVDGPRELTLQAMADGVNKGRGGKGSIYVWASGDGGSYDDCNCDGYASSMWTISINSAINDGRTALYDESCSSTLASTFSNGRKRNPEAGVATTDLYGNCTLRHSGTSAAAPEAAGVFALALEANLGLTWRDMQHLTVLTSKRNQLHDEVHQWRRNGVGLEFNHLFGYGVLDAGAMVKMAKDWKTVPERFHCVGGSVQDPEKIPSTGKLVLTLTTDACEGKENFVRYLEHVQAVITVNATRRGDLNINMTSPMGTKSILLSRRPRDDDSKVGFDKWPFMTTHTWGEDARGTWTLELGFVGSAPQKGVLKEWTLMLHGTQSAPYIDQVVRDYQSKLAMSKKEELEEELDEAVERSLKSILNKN

[12] = molecular target: T2, Neuroendocrine convertase 1 (Homo sapiens, UniProt P29120); assay: Inhibition of recombinant C-terminal truncated human SPC3 expressed in drosophila Schneider 2 cells after 1 hr by spectrofluorometry; format: cell-based
T2 sequence (P29120 whole entry): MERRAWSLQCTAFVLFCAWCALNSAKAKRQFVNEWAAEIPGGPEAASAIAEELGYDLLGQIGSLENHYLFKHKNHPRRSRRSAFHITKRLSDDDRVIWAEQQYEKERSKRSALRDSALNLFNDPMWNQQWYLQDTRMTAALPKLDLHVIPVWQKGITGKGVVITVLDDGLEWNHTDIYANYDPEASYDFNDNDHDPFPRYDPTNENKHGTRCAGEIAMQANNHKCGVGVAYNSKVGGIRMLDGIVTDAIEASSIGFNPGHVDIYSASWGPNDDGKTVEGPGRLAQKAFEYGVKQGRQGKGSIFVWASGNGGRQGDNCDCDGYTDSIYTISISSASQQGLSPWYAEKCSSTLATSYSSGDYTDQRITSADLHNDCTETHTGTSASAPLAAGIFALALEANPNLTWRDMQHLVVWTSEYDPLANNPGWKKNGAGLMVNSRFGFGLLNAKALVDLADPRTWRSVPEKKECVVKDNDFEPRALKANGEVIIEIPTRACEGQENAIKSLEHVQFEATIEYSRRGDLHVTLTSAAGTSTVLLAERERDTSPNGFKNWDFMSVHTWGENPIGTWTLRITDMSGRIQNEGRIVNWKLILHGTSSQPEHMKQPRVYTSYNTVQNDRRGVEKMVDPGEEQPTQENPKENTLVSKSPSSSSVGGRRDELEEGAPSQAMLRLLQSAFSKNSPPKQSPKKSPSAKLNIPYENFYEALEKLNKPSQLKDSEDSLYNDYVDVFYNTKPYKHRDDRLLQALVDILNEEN

[13] = molecular target: Disintegrin and metalloproteinase domain-containing protein 17 (Homo sapiens, UniProt P78536); assay: Inhibition of ADAM17 (unknown origin) assessed as blockage of TNF-alpha shedding
Sequence of Disintegrin and metalloproteinase domain-containing protein 17 (P78536 whole entry, the tested form may be a part): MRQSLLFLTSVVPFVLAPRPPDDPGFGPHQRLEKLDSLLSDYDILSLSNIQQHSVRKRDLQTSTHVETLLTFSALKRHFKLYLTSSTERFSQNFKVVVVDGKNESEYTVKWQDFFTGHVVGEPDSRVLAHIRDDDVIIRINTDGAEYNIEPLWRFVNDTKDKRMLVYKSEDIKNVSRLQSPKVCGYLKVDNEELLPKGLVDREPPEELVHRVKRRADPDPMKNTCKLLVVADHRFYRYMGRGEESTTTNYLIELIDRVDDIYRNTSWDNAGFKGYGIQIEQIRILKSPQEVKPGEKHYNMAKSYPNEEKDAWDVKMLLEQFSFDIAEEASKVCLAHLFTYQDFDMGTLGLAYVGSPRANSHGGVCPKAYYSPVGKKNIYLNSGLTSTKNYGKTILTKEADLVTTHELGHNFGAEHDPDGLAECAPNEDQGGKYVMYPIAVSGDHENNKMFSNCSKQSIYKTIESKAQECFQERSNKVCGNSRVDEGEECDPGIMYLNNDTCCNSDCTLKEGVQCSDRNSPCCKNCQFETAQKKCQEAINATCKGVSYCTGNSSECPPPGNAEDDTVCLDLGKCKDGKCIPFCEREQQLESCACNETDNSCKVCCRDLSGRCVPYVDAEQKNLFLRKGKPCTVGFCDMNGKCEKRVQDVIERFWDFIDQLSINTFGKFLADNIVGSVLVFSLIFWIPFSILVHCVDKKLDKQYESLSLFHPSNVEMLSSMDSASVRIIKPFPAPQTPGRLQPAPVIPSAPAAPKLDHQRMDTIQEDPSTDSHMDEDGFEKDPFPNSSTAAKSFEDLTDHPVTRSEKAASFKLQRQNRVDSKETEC

Gamma-secretase [14] = assay: Inhibition of gamma secretase in human primary neuronal cells assessed as reduction in amyloid beta 40
Gamma-secretase [15] = assay: Inhibition of gamma secretase (unknown origin) mediated Notch signaling by cell based luciferase reporter gene assay
Gamma-secretase [16] = assay: Inhibition of gamma secretase (unknown origin) mediated Notch activation; format: protein-complex assay, Homo sapiens
Gamma-secretase [17] = assay: Inhibition of full-length human gamma secretase expressed in SH-SY5Y spbetaA4CTF cells assessed as reduction in amyloid beta levels after 90 mins by HTRF assay; format: cell-based
Gamma-secretase [18] = assay: Inhibition of gamma secretase (unknown origin) assessed as reduction in amyloid beta levels by HTRF assay; format: protein-complex assay, Homo sapiens
Gamma-secretase [19] = assay: Inhibition of gamma secretase in human SupT1 cells assessed as reduction in amyloid beta 40 after 16 hrs by chemiluminescence assay; format: cell-based
Gamma-secretase [20] = assay: Inhibition of gamma secretase mediated Notch signaling in human SupT1 cells after 16 hrs by chemiluminescence assay; format: cell-based

IC50 (Gamma-secretase [1]): 2300 nM
SMILES: CC1=C(C(=O)OC2CCCCC2)C(c2ccc([N+](=O)[O-])cc2)C2=C(CC(C)(C)CC2=O)N1 (configuration not stated)

IC50 (Gamma-secretase [2]): 100000 nM
SMILES: C[C@@H](C(=O)O)c1ccc(-c2ccccc2)c(F)c1 [TARENFLURBIL]

IC50 (Gamma-secretase [3]): 5 nM
SMILES: O=C(O)CC[C@H]1CC[C@@](c2cc(F)ccc2F)(S(=O)(=O)c2ccc(Cl)cc2)CC1 [MK-0752]

IC50 (Gamma-secretase [4]): 0.41 nM
SMILES: C[C@H](NC(=O)CCC(F)(F)F)C(=O)N[C@H]1C(=O)N(CCO)c2ncccc2-c2ccccc21

IC50 (Gamma-secretase [4]): 14.1 nM
IC50 (Gamma-secretase [5]): 10.9 to 12.1 nM
SMILES: CC(C)[C@H](O)C(=O)N[C@@H](C)C(=O)N[C@@H]1C(=O)N(C)CCc2ccccc21

IC50 (Gamma-secretase [6]): 30000 nM
SMILES: COc1oc(=O)c2cc(N)ccc2c1Cl

EC50 (Gamma-secretase [7]): 5 nM
EC50 (Gamma-secretase [8]): 14 nM
SMILES: CC(C)(C(=O)NCC(F)(F)C(F)(F)F)C(=O)N[C@@H]1C(=O)Nc2ccccc2-c2ccccc21 [RG-4733]
TGI (A549): 66 - 91%

IC50 (Gamma-secretase [9]): 208 nM
IC50 (Gamma-secretase [10]): 14.8 nM
SMILES: O=S(=O)(N[C@H](CO)C(C(F)(F)F)C(F)(F)F)c1ccc(Cl)s1 [BEGACESTAT]

Ki [11]: 0.36 nM
Ki [12]: 2 nM
SMILES: CCCCCCCCCC(=O)N[C@@H](CCCNC(=N)N)C(=O)N[C@H](C(=O)N[C@@H](CCCCN)C(=O)N[C@@H](CCCNC(=N)N)C(=O)CCl)C(C)C (Decanoyl-RVKR-CH2Cl)

IC50 [13]: 8100 nM
SMILES: CC(C)CC(CC(=O)NO)C(=O)N[C@@H](Cc1ccc2ccccc2c1)C(=O)N[C@@H](C)C(=O)NCCN (some centres not stated)

IC50 (Gamma-secretase [14]): 115 to 200 nM
IC50 (Gamma-secretase [15]): 500 nM
SMILES: C[C@H](NC(=O)Cc1cc(F)cc(F)c1)C(=O)N[C@H](C(=O)OC(C)(C)C)c1ccccc1

IC50 (Gamma-secretase [16]): 0.27 nM
SMILES: CC(C)[C@H](O)C(=O)N[C@@H](C)C(=O)N[C@@H]1C(=O)N(C)c2ccccc2-c2ccccc21

IC50 (Gamma-secretase [17]): 115 to 200 nM
IC50 (Gamma-secretase [18]): 17 nM
SMILES: CC(C)C[C@H](NC(=O)[C@H](Cc1ccccc1)C[C@@H](O)[C@H](Cc1ccccc1)NC(=O)OC(C)(C)C)C(=O)N[C@@H](Cc1ccccc1)C(N)=O

IC50 (Gamma-secretase [19]): 2.6 nM
IC50 (Gamma-secretase [20]): 2.9 nM
SMILES: C[C@H](NC(=O)Cc1cc(F)cc(F)c1)C(=O)N[C@@H]1C(=O)N(C)c2ccccc2-c2ccccc21
